Experimental data published in patent US20240279227A1, “FUSED HETEROCYCLIC DERIVATIVES” (Janssen Sciences Ireland Unlimited Company, priority 2021, published 2024).

How the values were obtained:
[1] = system: HepG2 or HepG2.117 cells; assay: Cytotoxicity, ATPlite Luminescence Assay; format: cell-based, human; settings: 3-days incubation unless marked with *, ATPlite viability
In short: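 HepG2/HepG2.117; compound exposure 3–4 d; viability readout = ATPlite luminescence.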

[2] = system: HBV; assay: Anti-HBV activity in HepG2.117 cell line (intracellular HBV DNA, real-time PCR); format: cell-based, hepatitis B virus; settings: HepG2.117 cells, HBV replication induced, 3 days of treatment, intracellular HBV DNA by real-time PCR
In short: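 HepG2.117 cells (Tet-off, doxycycline-free HBV replication) induced for HBV replication, then exposed to serially diluted compound for 3 days. Intracellular HBV DNA quantified by real-time PCR with HBV-specific primers and probe.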

[3] = Human liver microsome stability; format: in vitro ADME; settings: 1 μM compound, NADPH 1 mM, pH 7.4, 37° C., 0-60 min; for HLM Metabolism t1/2: pooled human liver microsomes 0.5 mg/mL; for half-life at 1 μM: human, pooled human liver microsomes, pH 7.4, pooled human liver microsomes 0.5 mg/mL, read-out: HLM Metabolism t1/2
In short: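 Pooled human liver microsomes (0.5 mg/mL) incubated at 37 °C with 1 μM compound in 0.1 M phosphate pH 7.4, 1 mM MgCl2; 1 mM NADPH starts reaction. Samples quenched in acetonitrile at 0–60 min, analysed by LC-MS against internal standard; half-life from slope of ln peak-area ratio versus time.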

Row | Compound | CC50 [1] | EC50 [2] | HLM Metabolism t1/2 [3] | half-life at 1 μM [3] | EC50 ([2]; Hepatitis B virus, HepG2.117, 72 h)
1 | CNC(=O)[C@@H]1CN(C(C)c2nc(C(F)(F)F)cs2)C(=O)c2c3c(nn21)C[C@@H](C)N(C(=O)c1ccc(Cl)c(Cl)c1)C3 (single isomer, unassigned) [Compound 44B, (3R,7S)-2-(3,4-dichlorobenzoyl)-N,3-dimethyl-10-oxo-9-((S*)-1-(4-(trifluoromethyl)thiazol-2-yl)ethyl)-1,2,3,4,7,8,9,10-octahydropyrido[4′,3′:3,4]pyrazolo[1,5-a]pyrazine-7-carboxamide] | > 50 µM | 0.091 µM | >3 h |  | 
2 | CNC(=O)[C@@H]1CN(C(C)c2ccc(OC(F)F)nc2)C(=O)c2c3c(nn21)C[C@@H](C)N(C(=O)c1ccc(Cl)c(Cl)c1)C3 (single isomer, unassigned) [Compound 11A, (3R,7S)-2-(3,4-Dichlorobenzoyl)-9-((R*)-1-(6-(difluoromethoxy)pyridin-3-yl)ethyl)-N,3-dimethyl-10-oxo-1,2,3,4,7,8,9,10-octahydropyrido[4′,3′:3,4]pyrazolo[1,5-a]pyrazine-7-carboxamide] | > 50 µM | 0.12 µM |  | > 3 h | 
3 | CNC(=O)[C@@H]1CN(C(C)c2ccccn2)C(=O)c2c3c(nn21)C[C@@H](C)N(C(=O)c1ccc(Cl)c(Cl)c1)C3 (single isomer, unassigned) [Compound 37B, (3R,7S)-2-(3,4-dichlorobenzoyl)-N,3-dimethyl-10-oxo-9-((S*)-1-(pyridin-2-yl)ethyl)-1,2,3,4,7,8,9,10-octahydropyrido[4′,3′:3,4]pyrazolo[1,5-a]pyrazine-7-carboxamide] | > 50 µM | 0.067 µM | >3 h |  | 
4 | CNC(=O)[C@@H]1CN(C(C)c2ccc(-n3cncn3)cn2)C(=O)c2c3c(nn21)C[C@@H](C)N(C(=O)c1ccc(Cl)c(Cl)c1)C3 (single isomer, unassigned) [Compound 40B, (3R,7S)-9-((S*)-1-(5-(1H-1,2,4-triazol-1-yl)pyridin-2-yl)ethyl)-2-(3,4-dichlorobenzoyl)-N,3-dimethyl-10-oxo-1,2,3,4,7,8,9,10-octahydropyrido[4′,3′:3,4]pyrazolo[1,5-a]pyrazine-7-carboxamide] | > 50 µM | 0.097 µM | >3 h |  | 
5 | CNC(=O)[C@@H]1CN(C(C)c2cnc(C(F)(F)F)nc2)C(=O)c2c3c(nn21)C[C@@H](C)N(C(=O)c1ccc(Cl)c(C(F)(F)F)c1)C3 (single isomer, unassigned) [Compound 43B, (3R,7S)-2-(4-chloro-3-(trifluoromethyl)benzoyl)-N,3-dimethyl-10-oxo-9-((S*)-1-(2-(trifluoromethyl)pyrimidin-5-yl)ethyl)-1,2,3,4,7,8,9,10-octahydropyrido[4′,3′:3,4]pyrazolo[1,5-a]pyrazine-7-carboxamide] | > 50 µM | 0.057 µM | >3 h |  | 
6 | CNC(=O)[C@@H]1CN(C(C)c2ccc(-n3ncnc3C)cn2)C(=O)c2c3c(nn21)C[C@@H](C)N(C(=O)c1ccc(Cl)c(Cl)c1)C3 (single isomer, unassigned) [Compound 41B, (3R,7S)-2-(3,4-dichlorobenzoyl)-N,3-dimethyl-9-((S*)-1-(5-(5-methyl-1H-1,2,4-triazol-1-yl)pyridin-2-yl)ethyl)-10-oxo-1,2,3,4,7,8,9,10-octahydropyrido[4′,3′:3,4] pyrazolo[1,5-a]pyrazine-7-carboxamide] | > 50 µM | 0.1 µM | >3 h |  | 
7 | CNC(=O)[C@@H]1CN(C(C)c2ccc(C(C)(C)O)cn2)C(=O)c2c3c(nn21)C[C@@H](C)N(C(=O)c1ccc(Cl)c(Cl)c1)C3 (single isomer, unassigned) [Compound 39B, (3R,7S)-2-(3,4-dichlorobenzoyl)-9-((S*)-1-(5-(2-hydroxypropan-2-yl)pyridin-2-yl)ethyl)-N,3-dimethyl-10-oxo-1,2,3,4,7,8,9,10-octahydropyrido[4′,3′:3,4]pyrazolo[1,5-a]pyrazine-7-carboxamide] | > 50 µM | 0.12 µM | >3 h |  | 
8 | CNC(=O)[C@@H]1CN(C(C)c2ccc(-n3nnc(C)n3)cc2)C(=O)c2c3c(nn21)C[C@@H](C)N(C(=O)c1ccc(Cl)c(Cl)c1)C3 (single isomer, unassigned) [Compound 30A, (3R,7S)-2-(3,4-Dichlorobenzoyl)-N,3-dimethyl-9-((R*)-1-(4-(5-methyl-2H-tetrazol-2-yl)phenyl)ethyl)-10-oxo-1,2,3,4,7,8,9,10-octahydropyrido[4′,3′:3,4]pyrazolo[1,5-a]pyrazine-7-carboxamide] | > 50 µM |  |  | > 3 h | 0.016 µM
9 | CNC(=O)[C@@H]1CN(C(C)c2cccc(Cl)n2)C(=O)c2c3c(nn21)C[C@@H](C)N(C(=O)c1ccc(Cl)c(Cl)c1)C3 (single isomer, unassigned) [Compound 38B, (3R,7S)-9-((S*)-1-(6-chloropyridin-2-yl)ethyl)-2-(3,4-dichlorobenzoyl)-N,3-dimethyl-10-oxo-1,2,3,4,7,8,9,10-octahydropyrido[4′,3′:3,4]pyrazolo[1,5-a]pyrazine-7-carboxamide] | > 50 µM | 0.04 µM | 2.4 h |  | 
10 | CNC(=O)[C@@H]1CN(C(C)c2ccc(NCC(F)(F)F)nc2)C(=O)c2c3c(nn21)C[C@@H](C)N(C(=O)c1ccc(Cl)c(Cl)c1)C3 (single isomer, unassigned) [Compound 33B, (3R,7S)-2-(3,4-dichlorobenzoyl)-N,3-dimethyl-10-oxo-9-((S*)-1-(6-((2,2,2-trifluoroethyl)amino)pyridin-3-yl)ethyl)-1,2,3,4,7,8,9,10-octahydropyrido[4′,3′:3,4]pyrazolo[1,5-a]pyrazine-7-carboxamide] | > 50 µM | 0.055 µM | >3 h |  | 
11 | CNC(=O)[C@@H]1CN(C(C)c2ccc(S(=O)(=O)C3CC3)cc2)C(=O)c2c3c(nn21)C[C@@H](C)N(C(=O)c1ccc(Cl)c(C(F)(F)F)c1)C3 (single isomer, unassigned) [Compound 20B, (3R,7S)-2-(4-Chloro-3-(trifluoromethyl)benzoyl)-9-((S*)-1-(4-(cyclopropylsulfonyl)phenyl)ethyl)-N,3-dimethyl-10-oxo-1,2,3,4,7,8,9,10-octahydropyrido[4′,3′:3,4]pyrazolo[1,5-a]pyrazine-7-carboxamide] | > 50 µM | 0.022 µM | >3 h |  | 
12 | CNC(=O)[C@@H]1CN(C(C)c2ccc(-n3cncn3)cc2)C(=O)c2c3c(nn21)C[C@@H](C)N(C(=O)c1ccc(Cl)c(Cl)c1)C3 (single isomer, unassigned) [Compound 2B, (3R,7S)-9-((S*)-1-(4-(1H-1,2,4-triazol-1-yl)phenyl)ethyl)-2-(3,4-dichlorobenzoyl)-N,3-dimethyl-10-oxo-1,2,3,4,7,8,9,10-octahydropyrido[4′,3′:3,4]pyrazolo[1,5-a]pyrazine-7-carboxamide] | > 50 µM | 0.017 µM | >3 h |  | 
13 | CNC(=O)[C@@H]1CN(C(C)c2cc(F)ccn2)C(=O)c2c3c(nn21)C[C@@H](C)N(C(=O)c1ccc(Cl)c(Cl)c1)C3 (single isomer, unassigned) [Compound 42B, (3R,7S)-2-(3,4-dichlorobenzoyl)-9-((S*)-1-(4-fluoropyridin-2-yl)ethyl)-N,3-dimethyl-10-oxo-1,2,3,4,7,8,9,10-octahydropyrido[4′,3′:3,4]pyrazolo[1,5-a]pyrazine-7-carboxamide] | > 50 µM | 0.02 µM | >3 h |  | 
14 | CNC(=O)[C@@H]1CN(C(C)c2ccc(C(F)F)nc2)C(=O)c2c3c(nn21)C[C@@H](C)N(C(=O)c1ccc(Cl)c(Cl)c1)C3 (single isomer, unassigned) [Compound 36B, (3R,7S)-2-(3,4-dichlorobenzoyl)-9-((S*)-1-(6-(difluoromethyl)pyridin-3-yl)ethyl)-N,3-dimethyl-10-oxo-1,2,3,4,7,8,9,10-octahydropyrido[4′,3′:3,4]pyrazolo[1,5-a]pyrazine-7-carboxamide] | > 50 µM | 0.05 µM | >3 h |  | 
15 | CNC(=O)[C@@H]1CN(C(C)c2ccc(S(C)(=O)=O)cc2)C(=O)c2c3c(nn21)C[C@@H](C)N(C(=O)c1ccc(Cl)c(C(F)(F)F)c1)C3 (single isomer, unassigned) [Compound 19B, (3R,7S)-2-(4-chloro-3-(trifluoromethyl)benzoyl)-N,3-dimethyl-9-((S*)-1-(4-(methylsulfonyl)phenyl)ethyl)-10-oxo-1,2,3,4,7,8,9,10-octahydropyrido[4′,3′:3,4]pyrazolo[1,5-a]pyrazine-7-carboxamide] | > 50 µM | 0.028 µM | >3 h |  | 
16 | CC(c1ccc(OC(F)F)nc1)N1C[C@@H](C(N)=O)n2nc3c(c2C1=O)CN(C(=O)c1ccc(Cl)c(Cl)c1)[C@H](C)C3 (single isomer, unassigned) [Compound 12B, (3R,7S)-2-(3,4-dichlorobenzoyl)-9-((S*)-1-(6-(difluoromethoxy)pyridin-3-yl)ethyl)-3-methyl-10-oxo-1,2,3,4,7,8,9,10-octahydropyrido[4′,3′:3,4]pyrazolo[1,5-a]pyrazine-7-carboxamide] | 27.4 µM | 0.027 µM | >3 h |  | 
